Laboratory results: patent US20240025862A1, “SUBSTITUTED N-PHENYLURACILS AND SALTS THEREOF, AND USE THEREOF AS HERBICIDAL ACTIVE SUBSTANCES” (Bayer Aktiengesellschaft, priority 2020, published 2024)

Experiments:
Format in all cases: in vivo
[1] = test system: Zea mays (ZEAMX); assay: Post-emergence crop plant compatibility, greenhouse pot test; conditions: 1.25 g/ha, vs untreated controls
Summary of the method: (§1)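 Greenhouse pot test; post-emergence foliar spray at one-leaf stage, WP or EC in water + 0.5% additive, 600 l/ha. Visual rating after ~3 wk, % relative to untreated (0–100%).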

[2] = test system: Triticum aestivum (TRZAS); assay: as above; conditions: vs untreated controls
Summary of the method: as §1

[3] = test system: Oryza sativa (ORYSA); assay: Post-emergence crop plant compatibility, greenhouse pot test (also comparative test C); conditions: vs untreated controls
Summary of the method: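 Visual damage versus untreated plants (0% = like control, 100% = plants died) was scored about 3 weeks after a post-emergence spray in greenhouse pots. Treatment: one-leaf stage, WP or EC in water at 600 l/ha with 0.5% additive; a/b/c mark different dosages on the same crop.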

[4] = test system: Setaria viridis (SETVI); assay: Post-emergence herbicidal action, greenhouse pot test (also comparative test C)
Summary of the method: (§2)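 Greenhouse pot plants in sandy loam were sprayed post-emergence at the one-leaf stage (2–3 weeks after sowing) with WP or EC formulations plus 0.5% additive at 600 l/ha water. Activity was rated visually after about 3 weeks versus untreated controls (100% = dead, 0% = like control); rates were 20 g/ha or less, and 5 g/ha or less in the comparative test.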

[5] = test system: Alopecurus myosuroides (ALOMY); assay: as above; conditions: rated visually after about 3 weeks vs untreated controls, 100% = plants have died
Summary of the method: as §2

[6] = test system: Matricaria inodora (MATIN); assay: as above
Summary of the method: as §2

[7] = test system: Echinochloa crus-galli (ECHCG); assay: as above
Summary of the method: as §2

[8] = test system: Viola tricolor (VIOTR); assay: Post-emergence herbicidal action, greenhouse pot test
Summary of the method: (§3)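 Activity was scored by eye about 3 weeks after treatment against untreated plants, where 100% means dead plants and 0% means no difference. Plants at the one-leaf stage received a foliar spray of WP or EC formulations in water plus 0.5% additive (600 l/ha, up to 20 g/ha). Plants were grown in sandy loam pots in a greenhouse for 2–3 weeks before spraying.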

[9] = test system: Abutilon theophrasti (ABUTH); assay: as above; conditions: rated visually after about 3 weeks vs untreated controls, 100% = plants have died
Summary of the method: as §3

[10] = test system: Amaranthus retroflexus (AMARE); assay: as above; conditions: rated visually after about 3 weeks vs untreated controls, 100% = plants have died
Summary of the method: as §3

[11] = test system: Avena fatua (AVEFA); assay: as above; conditions: 20 g/ha, rated visually after about 3 weeks vs untreated controls, 100% = plants have died
Summary of the method: as §3

[12] = test system: Veronica persica (VERPE); assay: as above
Summary of the method: as §3

[13] = test system: Pharbitis purpurea (PHBPU); assay: as above
Summary of the method: as §3

[14] = test system: Polygonum convolvulus (POLCO); assay: as above
Summary of the method: as §3

Cn1c(C(F)(F)F)cc(=O)n(-c2cc(Oc3ccccc3OCC(=O)OCCOC(F)(F)F)c(Br)cc2F)c1=O [I.8-41]
100%: Post-emergence action against SETVI ([4]; 20 g/ha) | Post-emergence action against SETVI in % ([4]; dosage 1.25 g/ha) | Post-emergence action against SETVI in % ([4]; dosage 5 g/ha) | Post-emergence action at 20 g/ha against ALOMY in % ([5]; 20 g/ha) | Post-emergence action against MATIN in % ([6]; dosage 20 g/ha) | Post-emergence action against ECHCG in % ([7]; dosage 20 g/ha) | Post-emergence action against VIOTR ([8]; 1.25 g/ha) | Post-emergence action against VIOTR ([8]; 5 g/ha) | Post-emergence action against VIOTR ([8]; 20 g/ha) | Post-emergence action at 5 g/ha against ABUTH in % ([9]; 5 g/ha) | Post-emergence action at 20 g/ha against ABUTH in % ([9]; 20 g/ha) | Post-emergence action at 1.25 g/ha against AMARE in % ([10]; 1.25 g/ha) | Post-emergence action at 5 g/ha against AMARE in % ([10]; 5 g/ha) | Post-emergence action at 20 g/ha against AMARE in % ([10]; 20 g/ha) | Post-emergence action against VERPE ([12]; 5 g/ha) | Post-emergence action against VERPE ([12]; 20 g/ha) | Post-emergence action against PHBPU in % ([13]; dosage 1.25 g/ha) | Post-emergence action against PHBPU in % ([13]; dosage 5 g/ha) | Post-emergence action against PHBPU in % ([13]; dosage 20 g/ha) | Post-emergence action against POLCO in % ([14]; dosage 20 g/ha)
80%: Post-emergence action at 5 g/ha against ALOMY in % ([5]; 5 g/ha) | Post-emergence action at 1.25 g/ha against ABUTH in % ([9]; 1.25 g/ha) | Post-emergence action at 20 g/ha against AVEFA in % [11] | Post-emergence action against POLCO in % ([14]; dosage 1.25 g/ha)
20%: Post-emergence action against ZEAMX (crop plant compatibility) [1] | Post-emergence action against TRZAS (crop plant compatibility) ([2]; 5 g/ha) | Post-emergence action against ORYSA (crop plant compatibility) ([3]; 5 g/ha)
90%: Post-emergence action against MATIN in % ([6]; dosage 1.25 g/ha) | Post-emergence action against MATIN in % ([6]; dosage 5 g/ha) | Post-emergence action against ECHCG in % ([7]; dosage 5 g/ha) | Post-emergence action against POLCO in % ([14]; dosage 5 g/ha)
0%: Post-emergence action against TRZAS (crop plant compatibility) ([2]; 1.25 g/ha) | Post-emergence action against ORYSA (crop plant compatibility) ([3]; 1.25 g/ha)
